Publication PMC7727793, “Aggregation Behavior, Antibacterial Activity and Biocompatibility of Catanionic Assemblies Based on Amino Acid-Derived Surfactants” (International Journal of Molecular Sciences, 2020)
Entries after “also recorded” stand apart in the source; their conditions may differ.

Legend:
[1] = Solubility in water; assay type: physicochemical
[2] = tested on: all microorganisms tested; test: Broth microdilution MIC, statement for all microorganisms tested; assay type: cell-based
Protocol: Antibacterial assays were conducted in vitro using the broth microdilution method. The minimum inhibitory concentration (MIC) is the smallest concentration of antibacterial agent at which bacterial growth is not observed. MIC values were determined for 4 Gram-positive bacteria (methicillin-resistant Staphylococcus aureus ATCC 43300 (MRSA), Bacillus subtilis ATCC 6633, Kocuria rhizophila 9341, Staphylococcus epidermidis ATCC 12228), 3 Gram-negative bacteria (Klebsiella pneumoniae ATCC 4532, Pseudomonas aeruginosa ATCC 27853, Escherichia coli ATCC 8739) and the fungal strain, Candida albicans ATCC 10231. Frozen stocks of bacteria were incubated on Muller Hinton agar plates for 24 h at 37 °C. From this culture, a bacterial suspension of 1 × 10^6 colony forming units CFU/mL was prepared in MHB (pH = 7.3). Two dilutions of pure surfactants and their binary mixtures were prepared in MH broth to obtain a final concentration ranging from 4 to 454 μM in the microtiter plates.
Then, 10 μL of nutrient broth culture of each microorganism was added to achieve a final density of ca. 5 × 10^5 CFU/mL. The cultures were incubated for 24 h at 37 °C. Every assay was repeated three times.

- MIC ([2]; K. rhizophila, B. subtilis, S. epidermidis, S. aureus, K. pneumoniae, E. coli, P. aeruginosa, C. albicans, higher concentrations precipitated, read-out: MIC for all microorganisms tested): > 113 µM
SMILES: CCCCCCCCCCCC(=O)N[C@@H](CCCCNC(C)=O)C(=O)O [C12C3L, N^α-lauroyl-N^εacetyl lysine]
- Solubility in water [1]: too low to determine a CMC; also recorded: not soluble in water
- Antibacterial activity (in words) ([2]; tested microorganisms): did not show activity
